The target in experiment [1] is T1, Glucagon receptor (Rattus norvegicus, UniProt P30082). Put plainly: pA2 value against Glucagon Receptor. The note with it: read-out: pA2 (converted).
Experiment [2] addresses T1, Glucagon receptor. As to the kind of experiment: Binding affinity towards Glucagon receptor in rat liver plasma membranes by displacement of 125 I-labelled glucagon. The format is cell membranes.
Experiment [3] has as its target Glucagon receptor (Rattus norvegicus) (UniProt P30082). As to the kind of experiment: Relative binding potency expressed as receptor binding IC50 for glucagon by receptor binding IC50 for compound.
For experiment [4] the target is unchanged. Put plainly: Percent stimulation of cAMP production over basal. On the set-up: concentration or dose not given beside the values. The format is functional. For orientation: Changes in cAMP serve as a functional read-out for many G protein-coupled receptors.

As a reminder, the IC50 is the concentration that inhibits the measured activity by half.

Chain of Glucagon receptor (Rattus norvegicus) (P30082 whole entry): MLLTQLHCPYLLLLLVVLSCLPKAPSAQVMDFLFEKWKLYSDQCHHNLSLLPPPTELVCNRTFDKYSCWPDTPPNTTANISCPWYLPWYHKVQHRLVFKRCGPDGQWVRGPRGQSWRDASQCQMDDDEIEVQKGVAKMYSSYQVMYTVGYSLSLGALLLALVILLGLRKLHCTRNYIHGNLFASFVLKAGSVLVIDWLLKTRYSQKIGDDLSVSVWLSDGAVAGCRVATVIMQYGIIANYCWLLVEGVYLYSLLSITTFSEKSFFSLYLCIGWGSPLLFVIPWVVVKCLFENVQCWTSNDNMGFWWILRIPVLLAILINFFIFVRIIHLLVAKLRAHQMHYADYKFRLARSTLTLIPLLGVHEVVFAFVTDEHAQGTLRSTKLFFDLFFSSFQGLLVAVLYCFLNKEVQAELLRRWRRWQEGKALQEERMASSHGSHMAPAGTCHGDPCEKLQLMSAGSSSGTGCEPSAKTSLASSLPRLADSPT
T1 sequence (P30082 whole entry): as above

With `CSCC[C@H](NC(=O)[C@H](CC(C)C)NC(=O)[C@H](Cc1c[nH]c2ccccc12)NC(=O)[C@H](CCC(N)=O)NC(=O)[C@@H](NC(=O)[C@H](Cc1ccccc1)NC(=O)[C@H](CC(=O)O)NC(=O)[C@H](CCC(N)=O)NC(=O)[C@H](C)NC(=O)[C@H](CCCNC(=N)N)NC(=O)[C@H](CCCNC(=N)N)NC(=O)[C@H](CO)NC(=O)[C@H](CC(=O)O)NC(=O)[C@H](CC(C)C)NC(=O)[C@H](Cc1ccc(O)cc1)NC(=O)[C@H](CCCCN)NC(=O)[C@H](CO)NC(=O)[C@H](Cc1ccc(O)cc1)NC(=O)[C@H](CCC(=O)O)NC(=O)[C@H](CO)NC(=O)[C@@H](NC(=O)[C@@H](NC(=O)CNC(=O)[C@H](CCC(N)=O)NC(=O)[C@@H](N)CO)[C@@H](C)O)[C@@H](C)O)C(C)C)C(=O)N[C@@H](CC(N)=O)C(=O)N[C@H](C(=O)O)[C@@H](C)O` (stereo in doubt; 13), the Kb at Glucagon receptor [1] was 0.631 µM. The half-maximal inhibitory concentration (IC50) at Glucagon receptor [2] is 2 µM.

Compound `CCCC[C@H](NC(=O)[C@@H](NC(=O)CNC(=O)[C@H](CCC(N)=O)NC(=O)[C@@H](N)CO)[C@@H](C)O)C(=O)N[C@H](C(=O)N[C@@H](CO)C(=O)N[C@@H](CCC(=O)O)C(=O)N[C@@H](Cc1ccc(O)cc1)C(=O)N[C@@H](CO)C(=O)N[C@@H](CCCCN)C(=O)N[C@@H](Cc1ccc(O)cc1)C(=O)N[C@@H](CC(C)C)C(=O)N[C@@H](CC(=O)O)C(=O)N[C@@H](CO)C(=O)N[C@@H](CCCN=C(N)N)C(=O)N[C@@H](CCCN=C(N)N)C(=O)N[C@@H](C)C(=O)N[C@@H](CCC(N)=O)C(=O)N[C@@H](CC(=O)O)C(=O)N[C@@H](Cc1ccccc1)C(=O)N[C@H](C(=O)N[C@@H](CCC(N)=O)C(=O)N[C@@H](Cc1c[nH]c2ccccc12)C(=O)N[C@@H](CC(C)C)C(=O)N[C@@H](CCSC)C(=O)N[C@@H](CC(N)=O)C(=O)N[C@H](C(N)=O)[C@@H](C)O)C(C)C)[C@@H](C)O` showed an IC50 on Glucagon receptor [2] of 0.048 µM.

For `CSCC[C@H](NC(=O)[C@H](CC(C)C)NC(=O)[C@H](Cc1c[nH]c2ccccc12)NC(=O)[C@H](CCC(N)=O)NC(=O)[C@@H](NC(=O)[C@H](Cc1ccccc1)NC(=O)[C@H](CC(=O)O)NC(=O)[C@H](CCC(N)=O)NC(=O)[C@H](C)NC(=O)[C@H](CCCNC(=N)N)NC(=O)[C@H](CCCNC(=N)N)NC(=O)[C@H](CO)NC(=O)[C@H](CC(=O)O)NC(=O)[C@H](CC(C)C)NC(=O)[C@H](Cc1ccc(O)cc1)NC(=O)[C@H](CCCCN)NC(=O)[C@H](CO)NC(=O)[C@H](Cc1ccc(O)cc1)NC(=O)[C@H](CCC(=O)O)NC(=O)[C@H](CO)NC(=O)[C@@H](NC(=O)[C@H](CC(=O)O)NC(=O)[C@@H](NC(=O)CNC(=O)[C@H](CCC(N)=O)NC(=O)[C@@H](N)CO)[C@@H](C)O)[C@@H](C)O)C(C)C)C(=O)N[C@@H](CC(N)=O)C(=O)N[C@H](C(N)=O)[C@@H](C)O`, the Kb at Glucagon receptor [1] was 0.501 µM. This compound also displayed an IC50 at Glucagon receptor [2] of 2 µM.

Consider H-HSQGTTSDYSKYLDSRRAQDFVQWLMNT-OH, for which the Kb on Glucagon receptor [1] is 0.562 µM. The same compound registered an IC50 on Glucagon receptor [2] of 0.5 µM.

Take `CSCC[C@@H](NC(=O)[C@@H](CC(C)C)NC(=O)[C@@H](Cc1c[nH]c2ccccc12)NC(=O)[C@@H](CCC(N)=O)NC(=O)[C@H](NC(=O)[C@@H](Cc1ccccc1)NC(=O)[C@@H](CC(=O)O)NC(=O)[C@@H](CCC(N)=O)NC(=O)[C@@H](C)NC(=O)[C@@H](CCCN=C(N)N)NC(=O)[C@@H](CCCN=C(N)N)NC(=O)[C@@H](CO)NC(=O)[C@@H](CC(=O)O)NC(=O)[C@@H](CC(C)C)NC(=O)[C@@H](Cc1ccc(O)cc1)NC(=O)[C@@H](CCCCN)NC(=O)[C@@H](CO)NC(=O)[C@@H](Cc1ccc(O)cc1)NC(=O)[C@@H](CC(=O)O)NC(=O)[C@@H](CO)NC(=O)[C@H](NC(=O)[C@H](NC(=O)CNC(=O)[C@@H](CCC(N)=O)NC(=O)[C@H](N)CO)[C@H](C)O)[C@H](C)O)C(C)C)C(=O)N[C@H](CC(N)=O)C(=O)N[C@@H](C(N)=O)[C@H](C)O`: the Activity was 1.2% in experiment [3] and 0% in experiment [4].

With `CSCC[C@@H](NC(=O)[C@@H](CC(C)C)NC(=O)[C@@H](Cc1c[nH]c2ccccc12)NC(=O)[C@@H](CCC(N)=O)NC(=O)[C@H](NC(=O)[C@@H](Cc1ccccc1)NC(=O)[C@@H](CC(=O)O)NC(=O)[C@@H](CCC(N)=O)NC(=O)[C@@H](C)NC(=O)[C@@H](CCCN=C(N)N)NC(=O)[C@@H](CCCN=C(N)N)NC(=O)[C@@H](CO)NC(=O)[C@@H](CC(=O)O)NC(=O)[C@@H](CC(C)C)NC(=O)[C@@H](Cc1ccc(O)cc1)NC(=O)[C@@H](CCCCN)NC(=O)[C@@H](CO)NC(=O)[C@@H](Cc1ccc(O)cc1)NC(=O)[C@@H](CCC(=O)O)NC(=O)[C@@H](CO)NC(=O)[C@H](NC(=O)[C@H](NC(=O)CNC(=O)[C@@H](CCC(N)=O)NC(=O)[C@@H](CO)NC(=O)[C@H](N)Cc1c[nH]cn1)[C@H](C)O)[C@H](C)O)C(C)C)C(=O)N[C@H](CC(N)=O)C(=O)N[C@@H](C(N)=O)[C@H](C)O`, the Activity came out at 1.3% in experiment [3] and 0% in experiment [4].

Regarding `CSCC[C@@H](NC(=O)[C@@H](CC(C)C)NC(=O)[C@@H](Cc1c[nH]c2ccccc12)NC(=O)[C@@H](CCC(N)=O)NC(=O)[C@H](NC(=O)[C@@H](Cc1ccccc1)NC(=O)[C@@H](CC(=O)O)NC(=O)[C@@H](CCC(N)=O)NC(=O)[C@@H](C)NC(=O)[C@@H](CCCN=C(N)N)NC(=O)[C@@H](CCCN=C(N)N)NC(=O)[C@@H](CO)NC(=O)[C@@H](CC(=O)O)NC(=O)[C@@H](CC(C)C)NC(=O)[C@@H](Cc1ccc(O)cc1)NC(=O)[C@@H](CCCCN)NC(=O)[C@@H](CO)NC(=O)[C@@H](Cc1ccc(O)cc1)NC(=O)[C@@H](CCC(=O)O)NC(=O)[C@@H](CO)NC(=O)[C@H](NC(=O)[C@@H](C)NC(=O)[C@H](NC(=O)CNC(=O)[C@@H](CCC(N)=O)NC(=O)[C@H](N)CO)[C@H](C)O)[C@H](C)O)C(C)C)C(=O)N[C@H](CC(N)=O)C(=O)N[C@@H](C(N)=O)[C@H](C)O`, the results for the Activity in experiment [3] and in experiment [4] were 1.2% and 0%, respectively.

With `CSCC[C@@H](NC(=O)[C@@H](CC(C)C)NC(=O)[C@@H](Cc1c[nH]c2ccccc12)NC(=O)[C@@H](CCC(N)=O)NC(=O)[C@H](NC(=O)[C@@H](Cc1ccccc1)NC(=O)[C@@H](CC(=O)O)NC(=O)[C@@H](CCC(N)=O)NC(=O)[C@@H](C)NC(=O)[C@@H](CCCN=C(N)N)NC(=O)[C@@H](CCCN=C(N)N)NC(=O)[C@@H](CO)NC(=O)[C@@H](CC(=O)O)NC(=O)[C@@H](CC(C)C)NC(=O)[C@@H](Cc1ccc(O)cc1)NC(=O)[C@@H](CCCCN)NC(=O)[C@@H](CO)NC(=O)[C@@H](Cc1ccc(O)cc1)NC(=O)[C@@H](CCC(=O)O)NC(=O)[C@@H](CO)NC(=O)[C@H](NC(=O)[C@@H](Cc1c[nH]c2ccccc12)NC(=O)[C@H](NC(=O)CNC(=O)[C@@H](CCC(N)=O)NC(=O)[C@H](N)CO)[C@H](C)O)[C@H](C)O)C(C)C)C(=O)N[C@H](CC(N)=O)C(=O)N[C@@H](C(N)=O)[C@H](C)O`, the Activity in experiment [3] is 7.9%; in experiment [4], 0%.
